Values joined by “and” are separate entries in the source; they are usually repeats but may differ in a detail not shown here. Equal entries are not always repeated.
Assay: safety assessments (adverse events, NCI CTCAE)
Conditions: for Treatment-related cardiovascular events: any grade
[1] = median follow-up of nearly 3 years
[2] = nonhematologic TRAE, all 165 patients
[3] = treatment-related CVE G 3/4, Accelerated phase n=38
[4] = treatment-related CVE G 3/4, Chronic phase n=127
[5] = treatment-related CVE G 3/4, Total n=165
[6] = treatment-related CVE any grade, Accelerated phase n=38
[7] = treatment-related CVE any grade, Chronic phase n=127
[8] = treatment-related CVE any grade, Total n=165

Cc1ccc(C(=O)Nc2ccc(CN3CCN(C)CC3)c(C(F)(F)F)c2)cc1C#Cc1cnc2[nH]ncc2c1 [olverembatinib]
Hematologic (TRAE any grades, Total n=165): 138 (83.6) n (%) | Hyperbilirubinemia (TRAE any grades, Total n=165): 69 (41.8) n (%) | Hyperglycemia (TRAE any grades, Total n=165): 43 (26.1) n (%) | Hypertriglyceridemia (TRAE any grades, Total n=165): 95 (57.6) n (%) | Hypoalbuminemia (TRAE any grades, Total n=165): 26 (15.8) n (%) | Hypocalcemia (TRAE any grades, Total n=165): 64 (38.8) n (%) | Hypokalemia (TRAE any grades, Total n=165): 42 (25.5) n (%) | Hyponatremia (TRAE any grades, Total n=165): 38 (23.0) n (%) | Increased alanine aminotransferase (TRAE any grades, Total n=165): 59 (35.8) n (%) | Increased alkaline phosphatase (TRAE any grades, Total n=165): 21 (12.7) n (%) | Increased aspartate aminotransferase (TRAE any grades, Total n=165): 59 (35.8) n (%) | Increased creatine phosphokinase (TRAE any grades, Total n=165): 48 (29.1) n (%) | Increased γ-glutamyl transferase (TRAE any grades, Total n=165): 47 (28.5) n (%) | Leukopenia (TRAE any grades, Total n=165): 56 (33.9) n (%) | Myalgia (TRAE any grades, Total n=165): 31 (18.8) n (%) | Neutropenia (TRAE any grades, Total n=165): 26 (15.8) n (%) | Nonhematologic (TRAE any grades, Total n=165): 165 (100.0) n (%) | Pain in extremity (TRAE any grades, Total n=165): 21 (12.7) n (%) | Proteinuria (TRAE any grades, Total n=165): 84 (50.9) n (%) | Pyrexia (TRAE any grades, Total n=165): 30 (18.2) n (%) | Rash (TRAE any grades, Total n=165): 27 (16.4) n (%) | Sinus tachycardia (TRAE any grades, Total n=165): 30 (18.2) n (%) | Skin pigmentation (TRAE any grades, Total n=165): 139 (84.2%) n (%) and 139 (84.2) n (%) | Thrombocytopenia (TRAE any grades, Total n=165): 126 (76.4) n (%) | Treatment-related adverse events (TRAE any grades, Total n=165): 165 (100.0) n (%) | Adverse events resulting in dose interruption (Total n=165): 86 (52.1%) n (%) and 86 (52.1) n (%) | Adverse events resulting in dose reduction (Total n=165): 50 (30.3%) n (%) and 50 (30.3) n (%) | Adverse events resulting in treatment discontinuation (Total n=165): 13 (7.9) n (%) | severe thrombocytopenia leading to dose reduction (all 165 patients): 15.8% | Treatment-related cardiovascular events (Accelerated phase n=38): 9 (23.7) n (%) | Treatment-related cardiovascular events (Chronic phase n=127): 44 (34.6) n (%) | Treatment-related cardiovascular events (Total n=165): 53 (32.1%) n (%) and 53 (32.1) n (%) | median time to temporary treatment suspension or dose reduction (for SAEs): 5 months | patients requiring temporary treatment suspension or dose reduction (for SAEs): 75 (46.0%) n (%) | myelosuppression, median duration (in vivo): 36 (7–718) days | myelosuppression, median onset time (in vivo): 28 (4–676) days | patients in whom CVEs were grade 1 or 2 (in vivo): 88.5% | patients who received platelet transfusions (in vivo): 11.5% | patients who received red blood cell transfusions (in vivo): 9.7% | median duration of treatment interruptions (interruptions due to AEs): 56 days | median number of treatment interruptions (interruptions due to AEs): 2 | incidence of arterial occlusive and venous thrombotic events [1]: 5.0% | olverembatinib-related CVEs [1]: 32.0% | median time to onset of nonhematologic TRAEs (most frequent nonhematologic TRAEs): 70 days | Hyperbilirubinemia [2]: 41.8% | Hypertriglyceridemia [2]: 57.6% | Hypocalcemia [2]: 38.8% | Proteinuria [2]: 50.9% | elevated liver transaminases [2]: 35.8% | patients with Fridericia-corrected QT interval exceeding 500 ms on treatment (patients with CVEs): None | renal function according to estimated glomerular filtration rate (patients with persistent proteinuria): did not observe decreased renal function | Anemia (serious AE (SAE)): 6.0% | Atrial fibrillation (serious AE (SAE)): 2.0% | Pneumonia (serious AE (SAE)): 3.0% | Pyrexia (serious AE (SAE)): 2.0% | Thrombocytopenia (serious AE (SAE)): 9.0% | acute MI, cholelithiasis, pericardial effusion, upper-respiratory-tract infection, and urinary-tract infection (each) (serious AE (SAE)): 1% | Acute coronary syndrome [3]: 0 n (%) | Acute myocardial infarction [3]: 0 n (%) | Angina pectoris [3]: 0 n (%) | Arrhythmia [3]: 0 n (%) | Arteriosclerosis coronary artery [3]: 0 n (%) | Atrial fibrillation [3]: 1 (2.6) n (%) | Atrial tachycardia [3]: 0 n (%) | Cardiomegaly [3]: 0 n (%) | Cerebral infarction [3]: 0 n (%) | Lacunar infarction [3]: 0 n (%) | Palpitations [3]: 0 n (%) | Pericardial effusion [3]: 1 (2.6) n (%) | Retinal-vein occlusion [3]: 0 n (%) | Supraventricular extrasystoles [3]: 0 n (%) | Ventricular extrasystoles [3]: 0 n (%) | Acute coronary syndrome [4]: 1 (0.8) n (%) | Acute myocardial infarction [4]: 1 (0.8) n (%) | Angina pectoris [4]: 0 n (%) | Arrhythmia [4]: 1 (0.8) n (%) | Arteriosclerosis coronary artery [4]: 1 (0.8) n (%) | Atrial fibrillation [4]: 1 (0.8) n (%) | Atrial tachycardia [4]: 0 n (%) | Cardiomegaly [4]: 0 n (%) | Cerebral infarction [4]: 1 (0.8) n (%) | Lacunar infarction [4]: 1 (0.8) n (%) | Palpitations [4]: 0 n (%) | Pericardial effusion [4]: 1 (0.8) n (%) | Retinal-vein occlusion [4]: 2 (1.6) n (%) | Supraventricular extrasystoles [4]: 0 n (%) | Ventricular extrasystoles [4]: 0 n (%) | Acute coronary syndrome [5]: 1 (0.6) n (%) | Acute myocardial infarction [5]: 1 (0.6) n (%) | Angina pectoris [5]: 0 n (%) | Arrhythmia [5]: 1 (0.6) n (%) | Arteriosclerosis coronary artery [5]: 1 (0.6) n (%) | Atrial fibrillation [5]: 2 (1.2) n (%) | Atrial tachycardia [5]: 0 n (%) | Cardiomegaly [5]: 0 n (%) | Cerebral infarction [5]: 1 (0.6) n (%) | Lacunar infarction [5]: 1 (0.6) n (%) | Palpitations [5]: 0 n (%) | Pericardial effusion [5]: 2 (1.2) n (%) | Retinal-vein occlusion [5]: 2 (1.2) n (%) | Supraventricular extrasystoles [5]: 0 n (%) | Ventricular extrasystoles [5]: 0 n (%) | Acute coronary syndrome [6]: 0 n (%) | Acute myocardial infarction [6]: 0 n (%) | Angina pectoris [6]: 0 n (%) | Arrhythmia [6]: 0 n (%) | Arteriosclerosis coronary artery [6]: 0 n (%) | Atrial fibrillation [6]: 3 (7.9) n (%) | Atrial tachycardia [6]: 0 n (%) | Cardiomegaly [6]: 0 n (%) | Cerebral infarction [6]: 0 n (%) | Lacunar infarction [6]: 0 n (%) | Palpitations [6]: 1 (2.6) n (%) | Pericardial effusion [6]: 3 (7.9) n (%) | Retinal-vein occlusion [6]: 0 n (%) | Supraventricular extrasystoles [6]: 2 (5.3) n (%) | Ventricular extrasystoles [6]: 0 n (%) | Acute coronary syndrome [7]: 1 (0.8) n (%) | Acute myocardial infarction [7]: 1 (0.8) n (%) | Angina pectoris [7]: 1 (0.8) n (%) | Arrhythmia [7]: 1 (0.8) n (%) | Arteriosclerosis coronary artery [7]: 1 (0.8) n (%) | Atrial fibrillation [7]: 2 (1.6) n (%) | Atrial tachycardia [7]: 1 (0.8) n (%) | Cardiomegaly [7]: 1 (0.8) n (%) | Cerebral infarction [7]: 1 (0.8) n (%) | Lacunar infarction [7]: 1 (0.8) n (%) | Palpitations [7]: 1 (0.8) n (%) | Pericardial effusion [7]: 11 (8.7) n (%) | Retinal-vein occlusion [7]: 3 (2.4) n (%) | Supraventricular extrasystoles [7]: 3 (2.4) n (%) | Ventricular extrasystoles [7]: 7 (5.5) n (%) | Acute coronary syndrome [8]: 1 (0.6) n (%) | Acute myocardial infarction [8]: 1 (0.6) n (%) | Angina pectoris [8]: 1 (0.6) n (%) | Arrhythmia [8]: 1 (0.6) n (%) | Arteriosclerosis coronary artery [8]: 1 (0.6) n (%) | Atrial fibrillation [8]: 5 (3.0) n (%) | Atrial tachycardia [8]: 1 (0.6) n (%) | Cardiomegaly [8]: 1 (0.6) n (%) | Cerebral infarction [8]: 1 (0.6) n (%) | Lacunar infarction [8]: 1 (0.6) n (%) | Palpitations [8]: 2 (1.2) n (%) | Pericardial effusion [8]: 14 (8.5) n (%) | Retinal-vein occlusion [8]: 3 (1.8) n (%) | Supraventricular extrasystoles [8]: 5 (3.0) n (%) | Ventricular extrasystoles [8]: 7 (4.2) n (%)

Source: PMC9389804 (Journal of Hematology & Oncology, 2022)
